Source: patent publication US20240270821A1, “GIP/GLP1/GCG TRI-RECEPTOR AGONISTS AND USES THEREOF” (priority 2023, published 2024)
Like-named read-outs stand apart in the source and are kept apart here. Starred links: 1 amine or outer side, 2 acyl side, 3 side chain; linkers in the order of their positions; H or OH if unused. Non-standard residues stand in square brackets, D forms with d. Groups on a side chain read outwards from the residue. *: point of attachment. C20 diacid = O=C(O)CCCCCCCCCCCCCCCCCCC(=O)*; C18 diacid = O=C(O)CCCCCCCCCCCCCCCCC(=O)*; αMePhe(2-F) = C[C@](N)(Cc1ccccc1F)C(=O)O; γGlu = O=C(O)[C@H](CCC(=O)[*:2])N[*:1]; αMe4Pal = C[C@](N)(Cc1ccncc1)C(=O)O; αMeY = C[C@](N)(Cc1ccc(O)cc1)C(=O)O; 4Pal = N[C@@H](Cc1ccncc1)C(=O)O; αMeL = CC(C)C[C@](C)(N)C(=O)O; αMeS = C[C@](N)(CO)C(=O)O; Orn = NCCC[C@H](N)C(=O)O; AEEA = NCCOCCOCC(=O)O; Aib = CC(C)(N)C(=O)O

Columns and labels:
hGIPR [1] = target: T1, hGIPR (Homo sapiens, UniProt P48546); test: Functional cAMP activity in the presence of 1% HSA; assay type: cell-based; details: read-out: cAMP Rel EC50, hGIPR
T1 sequence (P48546 22-466): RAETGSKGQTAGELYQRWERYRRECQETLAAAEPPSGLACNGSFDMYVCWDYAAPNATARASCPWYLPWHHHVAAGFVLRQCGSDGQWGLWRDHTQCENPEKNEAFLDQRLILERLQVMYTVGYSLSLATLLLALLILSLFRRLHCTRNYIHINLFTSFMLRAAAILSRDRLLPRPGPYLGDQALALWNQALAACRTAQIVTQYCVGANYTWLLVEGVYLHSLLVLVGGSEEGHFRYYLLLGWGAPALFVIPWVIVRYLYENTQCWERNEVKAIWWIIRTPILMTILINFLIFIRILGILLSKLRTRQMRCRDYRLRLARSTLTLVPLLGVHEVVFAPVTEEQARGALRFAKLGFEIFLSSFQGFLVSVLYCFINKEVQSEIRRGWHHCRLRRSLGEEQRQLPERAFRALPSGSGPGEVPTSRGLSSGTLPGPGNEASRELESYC

hGLP-1R [2] = target: T2, hGLP-1R (Homo sapiens, UniProt P43220); test: Functional cAMP activity in the presence of 1% HSA; assay type: cell-based; details: read-out: cAMP Rel EC50, hGLP-1R
Target sequence in this assay (P43220 24-463): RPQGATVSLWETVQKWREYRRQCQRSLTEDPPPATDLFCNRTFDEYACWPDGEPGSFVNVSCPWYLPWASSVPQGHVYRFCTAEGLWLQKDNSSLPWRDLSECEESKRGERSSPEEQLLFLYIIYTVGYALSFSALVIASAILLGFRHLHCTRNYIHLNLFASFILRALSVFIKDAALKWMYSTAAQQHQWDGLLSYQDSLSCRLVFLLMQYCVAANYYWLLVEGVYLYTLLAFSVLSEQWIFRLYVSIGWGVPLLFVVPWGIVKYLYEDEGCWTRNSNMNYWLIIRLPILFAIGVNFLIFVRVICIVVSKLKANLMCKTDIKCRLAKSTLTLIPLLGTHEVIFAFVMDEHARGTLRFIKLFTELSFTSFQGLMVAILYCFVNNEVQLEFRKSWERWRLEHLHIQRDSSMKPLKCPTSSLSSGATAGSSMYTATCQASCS

human GcgR = human GcgR (Homo sapiens, UniProt P47871); test: Functional cAMP activity in the presence of 1% HSA; assay type: cell-based; details: read-out: cAMP Rel EC50, hGcgR
Sequence of human GcgR (P47871 26-477): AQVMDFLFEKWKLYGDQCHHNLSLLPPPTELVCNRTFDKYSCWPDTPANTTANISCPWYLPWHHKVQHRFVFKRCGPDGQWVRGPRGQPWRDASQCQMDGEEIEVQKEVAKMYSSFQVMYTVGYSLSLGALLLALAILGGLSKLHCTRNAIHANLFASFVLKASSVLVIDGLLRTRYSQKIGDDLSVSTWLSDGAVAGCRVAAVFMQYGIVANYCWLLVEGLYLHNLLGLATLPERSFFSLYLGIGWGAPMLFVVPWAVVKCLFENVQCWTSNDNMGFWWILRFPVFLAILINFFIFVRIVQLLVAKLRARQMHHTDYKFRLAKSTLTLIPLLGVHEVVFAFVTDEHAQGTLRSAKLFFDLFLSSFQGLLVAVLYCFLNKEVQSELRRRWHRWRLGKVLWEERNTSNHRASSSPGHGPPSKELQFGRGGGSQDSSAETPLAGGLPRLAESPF

hGIPR [3] = target: T1, hGIPR; test: Functional cAMP activation in the presence of 0.1% casein (no HSA); assay type: cell-based; details: read-out: Relative cAMP EC50, hGIPR;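 as to Relative cAMP EC50, hGIPR: intracellular cAMP rise after 30 min at 37 °C read by HTRF against a standard curve, scaled between buffer alone (0%) and top control ligand concentration (100%), four-parameter fit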;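 as to Relative cAMP EC50, hGLP-1R: intracellular cAMP rise after 30 min at 37 °C read by HTRF, normalized between buffer only (0%) and maximal control ligand (100%), four-parameter variable-slope fit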;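 as to Relative cAMP EC50, hGcgR: intracellular cAMP rise after 30 min at 37 °C, read by HTRF against a cAMP standard curve, scaled from buffer only (0%) to maximal control ligand response (100%)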
hGLP-1R [4] = target: T2, hGLP-1R; test: as above; assay type: cell-based; details: read-out: Relative cAMP EC50, hGLP-1R
Target sequence in this assay (P43220 24-463): as the sequence (P43220 24-463) above

hGcgR = hGcgR (Homo sapiens, UniProt P47871); test: as above; assay type: cell-based; details: read-out: Relative cAMP EC50, hGcgR;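 also: intracellular cAMP rise after 30 min at 37 °C, read by HTRF against a cAMP standard curve, scaled from buffer only (0%) to maximal control ligand response (100%)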
Sequence of hGcgR (P47871 26-477): as the sequence (P47871 26-477) above

[5] = Pepsin stability assay in simulated gastric fluid; assay type: in vitro ADME; details: pH 1.2, % Intact (SD)
Experimental: A pepsin stability assay is utilized to determine the relative stability of Example polypeptides in a simulated gastric proteolytic environment. […] The relative amount of intact peptide is quantified by mass spectrometry (MS). […] The examples were dissolved in 50 mM Tris buffer pH 8.0 at a concentration of 10 mg/mL as a stock solution. Pepsin A was reconstituted in SGF at 10 mg/mL. […] The example peptide and pepsin solutions were then incubated at 37° C. in a shaking incubator set at 100 rpm. Samples (25 μL) were withdrawn at different time intervals and quenched with 100 mM ammonium bicarbonate pH 9 (50 μL) to stop proteolytic activity. All samples were centrifuged, and the supernatants were analyzed by LC/MS to determine the remaining intact peptide.

[6] = Body weight in diet-induced obese C57BL/6 mice; assay type: in vivo; details: 10 nmol/kg SC QD, 16 days, percent of starting weight, DIO mice, mean ± SEM n=5
Experimental: To investigate the effect of the polypeptides as described herein on weight loss, exemplary polypeptides are dosed to C57BL/6 diet-induced obese (DIO) mice. Specifically, DIO male C57BL/6 mice (Taconic, Germantown, NY) maintained on a calorie-rich diet are used in the following studies. Mice are individually housed in a temperature-controlled (24° C.) facility with 12-hour light/dark cycle (lights on 22:00) and free access to food (TD95217) and water. After a minimum of 2 weeks acclimation to the facility, the mice are randomized according to their body weight, so each experimental group of animals would have similar starting body weight. The body weights range from 41 to 50 g. All groups contain 5 mice. […] Treatments are administered by subcutaneous (SC) injection (10 mL/kg) to ad libitum fed DIO mice 30 to 90 minutes prior to the onset of the dark cycle either once daily (QD) or once every 3 days (Q3D) for 9-16 days. Body weight and food intake are measured daily throughout the study. Body weight is presented as percent of the starting weight. […] Data are presented as mean±SEM of 5 animals per group in Table 7 below. Statistical analysis is performed using repeated measures ANOVA, followed by Dunnett's method comparison test.

human GLP1-R = human GLP1-R (Homo sapiens, UniProt P43220); test: GLP1-R internalization assay in HEK293 cells; assay type: cell-based; details: for EC50: HEK293 cells expressing SNAP-GLP-1R, read-out: GLP1R Internalization EC50; for Internalization % TOP: normalized to maximum concentration of GLP-1 (100%)
Sequence of human GLP1-R (P43220 24-463): as the sequence (P43220 24-463) above

hGLP-1R [7] = target: T2, hGLP-1R; test: GLP-1R CHO cell β-arrestin recruitment assay; assay type: cell-based; set-up: host or cells: CHO-K1 (PathHunter, assay-ready frozen cells); details: for EC50: CHO-K1 PathHunter, β-arrestin-2, 0.1% casein, read-out: hGLP1R β-arrestin Rel EC50; for % Stimulation Max: normalized to GLP-1(7-36) as maximum control;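 as to all read-outs here: luminescence read after 90 min peptide exposure at 37 °C and a further 60 min with detection reagent at room temperature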
Target sequence in this assay (P43220 24-463): as above
Target sequence in this assay (P32121 whole entry partner): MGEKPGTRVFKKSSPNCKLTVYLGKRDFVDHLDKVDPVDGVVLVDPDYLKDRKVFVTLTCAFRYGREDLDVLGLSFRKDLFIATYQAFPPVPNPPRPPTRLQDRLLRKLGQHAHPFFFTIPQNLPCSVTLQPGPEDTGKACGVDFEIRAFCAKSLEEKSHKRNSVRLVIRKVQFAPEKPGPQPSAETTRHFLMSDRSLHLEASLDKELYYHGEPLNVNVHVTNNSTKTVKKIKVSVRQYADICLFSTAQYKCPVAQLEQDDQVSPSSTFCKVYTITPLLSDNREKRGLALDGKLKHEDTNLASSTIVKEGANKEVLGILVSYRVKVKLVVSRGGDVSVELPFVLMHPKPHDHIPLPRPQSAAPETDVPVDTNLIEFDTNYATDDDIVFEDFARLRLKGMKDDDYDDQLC

[8] = in the presence of 0.1% casein (no HSA), geometric mean

Row | Substance | EC50 (hGIPR [1]) | EC50 (hGLP-1R [2]) | EC50 (human GcgR) | EC50 (hGIPR [3]) | EC50 (hGLP-1R [4]) | EC50 (hGcgR) | remaining at 0.25 h, 0.4 mg/mL [5] | remaining at 0.5 h, 0.4 mg/mL [5] | remaining at 1 h, 0.4 mg/mL [5] | EC50 (hGIPR [3]; [8]) | EC50 (hGLP-1R [4]; [8]) | EC50 (hGcgR; [8]) | Body weight (%) [6] | EC50 (human GLP1-R) | Internalization % TOP (human GLP1-R) | EC50 (hGLP-1R [7]) | % Stimulation Max (hGLP-1R [7])
1 | H-Y[Aib]QGT[αMePhe(2-F)]TSD[4Pal]SI[αMeL]LD[Orn]K([AEEA-γGlu-C18 diacid])AQ[αMe4Pal][Orn]FIE[αMeY]LIEGGPSSGEPPPEGT-NH2 [Example 505] | 2.1 nM | 39 nM | 92 nM | 0.00707 nM | 0.205 nM | 0.445 nM | 91.6% | 78.9% | 53.5% | – | – | – | – | – | – | – | –
2 | H-Y[Aib]QGT[αMePhe(2-F)]TSD[4Pal][αMeS]I[αMeL]LD[Orn]K([γGlu-γGlu-C18 diacid])AQ[αMe4Pal]EFI[dE][αMeY]LIEGGPSSGAPPPSGTGE-NH2 [Example 718] | 0.531 nM | 23.2 nM | 144 nM | 0.00706 nM | 0.214 nM | 1.2 nM | 103% | 101% | – | – | – | – | – | – | – | – | –
3 | H-Y[Aib]QGT[αMePhe(2-F)]TSD[4Pal][αMeS]I[αMeL]LD[Orn]K([AEEA-γGlu-C18 diacid])AQ[αMe4Pal]EFI[dE][αMeY]LIEGGPSSGEPPPSGGGE-NH2 [Example 742] | 0.857 nM | 33.3 nM | 203 nM | 0.00688 nM | 0.266 nM | 1.25 nM | 100% | 113% | 103% | – | – | – | – | – | – | – | –
4 | H-Y[Aib]QGT[αMePhe(2-F)]TSD[4Pal][αMeS]I[αMeL]LD[Orn]K([AEEA-γGlu-C18 diacid])AQ[αMe4Pal]EFI[dE][αMeY]LVEGGPSSGEPPPSGS-NH2 [Example 733] | 1.15 nM | 34.3 nM | 207 nM | 0.00894 nM | 0.293 nM | 1.6 nM | 109% | 107% | 110% | – | – | – | – | – | – | – | –
5 | H-Y[Aib]QGT[αMePhe(2-F)]TSDYSKLLDKIAQK([AEEA-γGlu-C20 diacid])AFIEYLLEGGPSSGEPPPSEG-NH2 [Example 295] | 61.1 nM | 232 nM | 605 nM | – | – | – | – | – | – | 0.126 nM | 0.831 nM | 2.15 nM | 51.58 ± 3.24 % | 31.4 nM | 88.4% | 16.4 nM | 44.1%
6 | H-Y[Aib]QGTFTSD[4Pal]SQ[αMeL]LD[Orn]K([dE-γGlu-C18 diacid])AQ[αMe4Pal]EFI[dE][αMeY]LIAGGPSSGAPPPSGSEEE-NH2 [Example 1235] | – | – | – | – | – | – | 1.4% | 0% | 0% | – | – | – | – | – | – | – | –
7 | H-Y[Aib]QGT[αMePhe(2-F)]TSDYSILLDKIAAK([AEEA-γGlu-C20 diacid])AFIEYLIEGGPSSGEPPPSEG-NH2 [Example 296] | 21.8 nM | 171 nM | 517 nM | – | – | – | – | – | – | 0.0806 nM | 0.536 nM | 1.72 nM | 49.64 ± 1.97 % | 19.2 nM | 87.2% | 14 nM | 55.2%
